pIC50: −log10 of the molar value. Where two headings read alike, the source gives them in different places.
Legend:
[1] = SRB growth screen, whole cell line panel; assay type: cell-based; settings: for CC50: Homo sapiens, read-out: Log10 LC50, Mean (converted); for GI50: read-out: Log10 GI50, Mean (converted); for IC (TGI): read-out: Log10 TGI, Mean (converted)
Description: The screening assay is performed on 96-well microtitre plates. […] Duplicate wells are prepared for all concentrations; "time-zero" and "nodrug" controls are also provided for each test. […] One hundred microliters of SRB solution (0.4% w/v in 1% acetic acid) is added to each microtitre well and incubated for 10 minutes at room temperature.
The response parameters GI50 and LC50 are interpolated values representing the concentrations at which the percentage growth (PG) is +50 and -50 respectively:
GI50 is the concentration for which the PG=+50.
TGI is the concentration for which PG=0.
LC50 is the concentration for which the PG=-50. […] This is interpreted as cytotoxicity.
The data represented in Table I is graphically represented in FIGS. 1a and 1b through FIGS. 9a and 9b. […] The following is an example of how the information in Table I and in the Figures is interpreted.

M14 = experiment: SRB growth screen, melanoma M14; settings: Homo sapiens, M14, 48 h; for CC50: read-out: Log10 LC50 (converted)
MOLT-4 = experiment: SRB growth screen, leukemia MOLT-4; settings: Homo sapiens, MOLT-4, 48 h; for CC50: read-out: Log10 LC50 (converted); for IC (TGI): read-out: Log10 TGI
CCRF-CEM = experiment: SRB growth screen, leukemia CCRF-CEM; settings: Homo sapiens
KM12 = experiment: SRB growth screen, colon cancer KM12; settings: Homo sapiens, KM12, 48 h
SNB-19 = experiment: SRB growth screen, CNS cancer SNB-19; settings: Homo sapiens, SNB-19, 48 h; for CC50: read-out: Log10 LC50 (converted); for IC (TGI): read-out: Log10 TGI
MALME-3M = experiment: SRB growth screen, melanoma MALME-3M; settings: Homo sapiens, 48 h; for CC50: read-out: Log10 LC50 (converted); for IC (TGI): read-out: Log10 TGI
HL-60(TB) = experiment: SRB growth screen, leukemia HL-60(TB); settings: Homo sapiens, HL-60, 48 h; for CC50: read-out: Log10 LC50 (converted); for IC (TGI): read-out: Log10 TGI
A498 = experiment: SRB growth screen, renal cancer A498; settings: Homo sapiens, A498, 48 h; for CC50: read-out: Log10 LC50 (converted)
786-0 = experiment: SRB growth screen, renal cancer 786-0; settings: Homo sapiens, 786-0, 48 h; for CC50: read-out: Log10 LC50 (converted); for IC (TGI): read-out: Log10 TGI
TK-10 = experiment: SRB growth screen, renal cancer TK-10; settings: Homo sapiens, TK-10, 48 h; for CC50: read-out: Log10 LC50 (converted); for IC (TGI): read-out: Log10 TGI
HCT-15 = experiment: SRB growth screen, colon cancer HCT-15; settings: Homo sapiens, HCT-15, 48 h; for GI50: read-out: Log10 GI50 (converted); for CC50: read-out: Log10 LC50 (converted); for IC (TGI): read-out: Log10 TGI
MDA-N = experiment: SRB growth screen, breast cancer MDA-N; settings: Homo sapiens, 48 h; for GI50: read-out: Log10 GI50 (converted)
HCT-116 = experiment: SRB growth screen, colon cancer HCT-116; settings: Homo sapiens, HCT-116, 48 h; for GI50: read-out: Log10 GI50 (converted); for CC50: read-out: Log10 LC50 (converted)
BT-549 = experiment: SRB growth screen, breast cancer BT-549; settings: Homo sapiens, BT-549, 48 h; for GI50: read-out: Log10 GI50 (converted); for CC50: read-out: Log10 LC50 (converted); for IC (TGI): read-out: Log10 TGI
COLO 205 = experiment: SRB growth screen, colon cancer COLO 205; settings: Homo sapiens, COLO 205, 48 h; for CC50: read-out: Log10 LC50 (converted)
OVCAR-3 = experiment: SRB growth screen, ovarian cancer OVCAR-3; settings: Homo sapiens, OVCAR-3, 48 h; for CC50: read-out: Log10 LC50 (converted); for IC (TGI): read-out: Log10 TGI
OVCAR-8 = experiment: SRB growth screen, ovarian cancer OVCAR-8; settings: Homo sapiens, OVCAR-8, 48 h; for CC50: read-out: Log10 LC50 (converted)
MCF7/ADR-RES = experiment: SRB growth screen, breast cancer MCF7/ADR-RES; settings: Homo sapiens, 48 h; for CC50: read-out: Log10 LC50 (converted); for IC (TGI): read-out: Log10 TGI
NCI-H460 = settings: Homo sapiens, NCI-H460, 48 h; for CC50: read-out: Log10 LC50 (converted)
NCI-H522 = settings: Homo sapiens, NCI-H522, 48 h; for GI50: read-out: Log10 GI50 (converted); for IC (TGI): read-out: Log10 TGI
[2] = read-out: Log10 GI50 (converted)
[3] = 48 h, read-out: Log10 LC50 (converted)
[4] = read-out: concentration considered cytostasis (percentage growth 0)
[5] = read-out: concentration necessary to achieve primary growth inhibition (PG +50)
[6] = read-out: cytotoxicity concentration (percentage growth -50)
[7] = read-out: Log10 LC50 (converted)

`CC(=O)O[C@H]1C(=O)[C@@]2(C)[C@H]([C@H](OC(=O)c3ccccc3)[C@]3(O)C[C@H](OC(=O)[C@H](O)[C@@H](NC(=O)C4(C)OC4C)c4ccccc4)C(C)=C1C3(C)C)[C@]1(OC(C)=O)CO[C@@H]1C[C@@H]2O` (stereo partly drawn) [Ceph-epoxide, cephalomannine epoxide] showed a CC50 [1] of 64.6 µM, a GI50 ([1]; mean over cell lines) of 28.8 nM and an IC (TGI) ([1]; mean over cell lines) of 5.75 µM. For the same molecule, the GI50 (M14; [2]) was less than 0.01 µM, the CC50 (M14) was greater than 100 µM and the GI50 (MOLT-4; [2]) was less than 0.01 µM. It also gave a CC50 (MOLT-4) greater than 100 µM, an IC (TGI) (MOLT-4) greater than 100 µM and a GI50 (CCRF-CEM; 48 h, read-out: Log10 GI50 (converted)) of less than 0.01 µM. It also gave a CC50 (CCRF-CEM; [3]) greater than 100 µM, an IC (TGI) (CCRF-CEM; 48 h, read-out: Log10 TGI) of 2.51 µM and an IC (TGI) (CCRF-CEM; [4]) of 2.51 µM. The pIC50 (CCRF-CEM; [5]) was greater than 8.00, the CC50 (CCRF-CEM; [6]) was greater than 100 µM and the GI50 (KM12; [2]) was less than 0.01 µM. For the same molecule, the GI50 (SNB-19; [2]) was 0.0257 µM, the CC50 (SNB-19) was greater than 100 µM and the IC (TGI) (SNB-19) was greater than 100 µM. For the same molecule, the CC50 (MALME-3M) was greater than 100 µM, the IC (TGI) (MALME-3M) was greater than 100 µM and the GI50 (HL-60(TB); [2]) was less than 0.01 µM. It also gave a CC50 (HL-60(TB)) greater than 100 µM, an IC (TGI) (HL-60(TB)) of less than 0.01 µM and a GI50 (A498; [2]) of 0.316 µM. The CC50 (A498) was greater than 100 µM, the IC (TGI) (A498; read-out: Log10 TGI) was greater than 100 µM and the CC50 (786-0) was greater than 100 µM. It also gave an IC (TGI) (786-0) greater than 100 µM, a GI50 (TK-10; [2]) of 0.0646 µM and a CC50 (TK-10) greater than 100 µM. The IC (TGI) (TK-10) was greater than 100 µM, the GI50 (HCT-15) was 0.603 µM and the CC50 (HCT-15) was greater than 100 µM. For the same molecule, the IC (TGI) (HCT-15) was greater than 100 µM, the GI50 (MDA-N) was less than 10 nM and the CC50 (MDA-N; [7]) was less than 0.01 µM. For the same molecule, the IC (TGI) (MDA-N; read-out: Log10 TGI) was less than 0.01 µM, the GI50 (HCT-116) was less than 10 nM and the CC50 (HCT-116) was greater than 100 µM. For the same molecule, the GI50 (BT-549) was 0.01 µM, the CC50 (BT-549) was less than 100 µM and the IC (TGI) (BT-549) was 0.0977 µM. The GI50 (COLO 205; [2]) was less than 0.01 µM, the CC50 (COLO 205) was 0.603 µM and the IC (TGI) (COLO 205; read-out: Log10 TGI) was 0.0269 µM. For the same molecule, the GI50 (OVCAR-3; [2]) was less than 0.01 µM, the CC50 (OVCAR-3) was greater than 100 µM and the IC (TGI) (OVCAR-3) was 0.0182 µM. The CC50 (OVCAR-8) was greater than 100 µM, the IC (TGI) (OVCAR-8; read-out: Log10 TGI) was greater than 100 µM and the GI50 (MCF7/ADR-RES; [2]) was 13.8 µM. The CC50 (MCF7/ADR-RES) was greater than 100 µM, the IC (TGI) (MCF7/ADR-RES) was 61.7 µM and the GI50 (NCI-H460; [2]) was less than 0.01 µM. For the same molecule, the CC50 (NCI-H460) was greater than 100 µM, the IC (TGI) (NCI-H460; read-out: Log10 TGI) was greater than 100 µM and the GI50 (NCI-H522) was less than 10 nM. It also gave an IC (TGI) (NCI-H522) of 33.1 nM.
`CC(=O)O[C@H]1C(=O)[C@@]2(C)[C@H]([C@H](OC(=O)c3ccccc3)[C@]3(O)C[C@H](OC(=O)[C@H](O)[C@@H](NC(=O)c4ccccc4)c4ccccc4)C(C)=C1C3(C)C)[C@]1(OC(C)=O)CO[C@@H]1C[C@@H]2O` [Paclitaxel, paclitaxel, reference compound] showed a CC50 ([1]; mean over cell lines) of 87.1 µM, a GI50 ([1]; mean over cell lines) of 0.0708 nM and an IC (TGI) ([1]; mean over cell lines) of 28.8 µM. For the same molecule, the CC50 (M14) was 74.1 µM, the IC (TGI) (M14; read-out: Log10 TGI) was 24 µM and the CC50 (MOLT-4) was greater than 100 µM. The IC (TGI) (MOLT-4) was greater than 100 µM, the CC50 (CCRF-CEM; [3]) was greater than 100 µM and the IC (TGI) (CCRF-CEM; 48 h, read-out: Log10 TGI) was greater than 100 µM. The pIC50 (CCRF-CEM; read-out: concentration at which primary growth inhibition occurs (PG +50)) was 11.61, the IC (TGI) (CCRF-CEM; [4]) was greater than 100 µM and the pIC50 (CCRF-CEM; [5]) was greater than 8.00. For the same molecule, the CC50 (CCRF-CEM; [6]) was greater than 100 µM, the CC50 (KM12; [7]) was greater than 100 µM and the IC (TGI) (KM12; read-out: Log10 TGI) was 43.7 µM. It also gave a CC50 (SNB-19) greater than 100 µM, an IC (TGI) (SNB-19) greater than 100 µM and a CC50 (MALME-3M) of 77.6 µM. It also gave an IC (TGI) (MALME-3M) of 34.7 µM, a CC50 (HL-60(TB)) greater than 100 µM and an IC (TGI) (HL-60(TB)) greater than 29.5 µM. It also gave a CC50 (A498) of 74.1 µM, a CC50 (786-0) greater than 100 µM and an IC (TGI) (786-0) greater than 100 µM. For the same molecule, the CC50 (TK-10) was greater than 100 µM, the IC (TGI) (TK-10) was greater than 100 µM and the GI50 (HCT-15) was 0.427 µM. The CC50 (HCT-15) was greater than 100 µM, the IC (TGI) (HCT-15) was greater than 100 µM and the GI50 (MDA-N) was less than 0.0001 nM. The GI50 (HCT-116) was less than 0.0001 nM, the CC50 (HCT-116) was greater than 100 µM and the IC (TGI) (HCT-116; read-out: Log10 TGI) was 15.1 µM. For the same molecule, the GI50 (BT-549) was 0.00049 µM, the CC50 (BT-549) was greater than 100 µM and the IC (TGI) (BT-549) was 0.479 µM. It also gave a CC50 (COLO 205) greater than 38.9 µM, a CC50 (OVCAR-3) greater than 100 µM and an IC (TGI) (OVCAR-3) of 28.2 µM. It also gave a GI50 (OVCAR-8; [2]) of 0.0178 nM, a CC50 (OVCAR-8) greater than 100 µM and a CC50 (MCF7/ADR-RES) greater than 100 µM. It also gave an IC (TGI) (MCF7/ADR-RES) greater than 100 µM, a CC50 (NCI-H460) greater than 100 µM and a GI50 (NCI-H522) of less than 0.0001 nM. For the same molecule, the CC50 (NCI-H522; [7]) was greater than 100 µM and the IC (TGI) (NCI-H522) was 0.00631 nM.

— US5892063A (Hauser, Inc., priority 1997, dated 1999)
